Test [1] has as its system primary human total T-cells. In words: T-cell activation, IL-2 secretion, Biological Example 13. The test is classed as cell-based. The note with it: 48 hours, fold change over baseline, Table 8; for IL-2 secretion CD3/CD28 0.3 μM / IL-2 secretion CD3/CD28 1 μM: anti-CD3 and anti-CD28 co-stimulation; for IL-2 secretion CD3/CD28 0.3 μM: 0.3 μM inhibitor; for IL-2 secretion CD3/CD28 1 μM / IL-2 secretion CD3 1 μM: 1 μM inhibitor; for IL-2 secretion CD3 1 μM / IL-2 secretion CD3 3 μM: anti-CD3 stimulation alone; for IL-2 secretion CD3 3 μM: 3 μM inhibitor.

The subject of test [2] is primary human total T-cells. The test can be described thus: T-cell activation, CD25 surface staining, Biological Example 2. In kind it is cell-based. The note with it: 48 hours, fold change over baseline; for fold induction at 0.3 µM: 0.3 μM inhibitor; for fold induction at 1 µM: 1 μM inhibitor; for fold induction at 3 µM: 3 μM inhibitor.
Test [3] deals with primary human total T-cells. The test can be described thus: T-cell activation, IL-2 secretion, Biological Example 9. The test is classed as cell-based. The settings on record: 48 hours, fold change over baseline, Table 5; for IL-2 secretion CD3/CD28 0.3 μM / IL-2 secretion CD3/CD28 1 μM: anti-CD3 and anti-CD28 co-stimulation; for IL-2 secretion CD3/CD28 0.3 μM: 0.3 μM inhibitor; for IL-2 secretion CD3/CD28 1 μM / IL-2 secretion CD3 1 μM: 1 μM inhibitor; for IL-2 secretion CD3 1 μM / IL-2 secretion CD3 3 μM: anti-CD3 stimulation alone; for IL-2 secretion CD3 3 μM: 3 μM inhibitor.

In test [4] the test system is primary human total T-cells. In words: T-cell activation, IL-2 secretion, Biological Example 2. The test is classed as cell-based. The note with it: 48 hours, fold change over baseline; for fold induction at 0.3 µM: 0.3 μM inhibitor; for fold induction at 1 µM: 1 μM inhibitor; for fold induction at 3 µM: 3 μM inhibitor.
Test [5] has as its target T1, Cbl-b (Homo sapiens (Human), UniProt Q13191). In words: Cbl-b displacement assay (Cbl-b inhibition assay), Biological Example 8. The test is classed as binding. The note with it: 0.125 nM Cbl-b final concentration (Low), Table 4; read-out: Cbl-b IC50 (Low). The procedure:
(§1) Candidate compounds were evaluated for their ability to bind and inhibit Cbl-b, an E3 ubiquitin-protein ligase, as evidenced by their ability to displace a fluorophore-labeled probe bound to Cbl-b.
(§2) The ability of candidate compounds to displace a known inhibitor and thereby inhibit Cbl-b activity was measured by monitoring the interaction of Cbl-b with a fluorophore-labeled probe in the presence of the candidate compound. A truncated variant of Cbl-b (UniProt number Q13191) containing residues 36-427 and an Avitag at its N-terminus was co-expressed with BirA biotin ligase and purified using a standard protocol (see Dou et al., Nature Structural and Molecular Biology 8: 982-987, 2013; Avidity LLC).
Fluorescently-labeled inhibitor probe was synthesized and tagged with BODIPY FL. Cbl-b displacement assays were performed in a 384-well plate at room temperature in a […] by pre-incubating 0.5 nM Cbl-b or 0.125 nM Cbl-b (final concentration, indicated as “High” and “Low,” respectively) in an assay buffer containing 20 mM HEPES pH 7.5, 150 mM NaCl, 0.01% Triton X-100, 0.01% BSA, and 0.5 mM TCEP in the presence of a candidate compound in 1% DMSO (final concentration) for 1 hour. After incubation in the presence of the candidate compound, the plate was incubated for an additional one hour in the presence of an approximate EC40 binding saturation consisting of 150 nM fluorescently-labeled inhibitor probe and 2 nM Streptavidin-Terbium (Cisbio) (final concentrations). Following the one hour incubation, the plates were read for TR-FRET signal at […] using an Envision plate reader (Perkin Elmer).
(§3) The resulting data for the Cbl-b activity assays were analyzed using standard methods to determine the IC50 values for the tested compounds.

In test [6] the target is T1, Cbl-b. In words: Cbl-b displacement assay (Cbl-b inhibition assay), Biological Example 1. The test is classed as binding. Summed up:
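Probe displacement read as TR-FRET (520/620 nm) after 1 h with 2 nM streptavidin-terbium and 150 nM BODIPY FL-labelled inhibitor probe, about EC40. Before that, compound in 1% DMSO sat 1 h at room temperature with N-Avitag biotinylated Cbl-b 36–427, 0.5 nM (High) or 0.125 nM (Low), in pH 7.5 HEPES buffer.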

In test [7] the target is T1, Cbl-b. The test can be described thus: Cbl-b displacement assay (Cbl-b inhibition assay), Biological Example 12. The settings on record: 0.125 nM Cbl-b final concentration (Low), Table 7; read-out: Cbl-b IC50 (Low). The test is classed as binding. The method, then: as §1, §2
Fluorescently-labeled inhibitor probe was synthesized and tagged with BODIPY FL. Cbl-b displacement assays were performed in a 384-well plate at room temperature in a […] by pre-incubating 0.5 nM Cbl-b or 0.125 nM Cbl-b (final concentration, indicated as “High” and “Low,” respectively) in an assay buffer containing 20 mM HEPES pH 7.5, 150 mM NaCl, 0.01% Triton X-100, 0.01% BSA and 0.5 mM TCEP in the presence of a candidate compound in 1% DMSO (final concentration) for one hour. After incubation in the presence of the candidate compound, the plate was incubated for an additional one hour in the presence of an approximate EC40 binding saturation consisting of 150 nM fluorescently-labeled inhibitor probe and 2 nM Streptavidin-Terbium (Cisbio) (final concentrations). Following the one hour incubation, the plates were read for TR-FRET signal at […] using an Envision plate reader (Perkin Elmer).
as §3

Setting [8] is: anti-CD3 and anti-CD28 co-stimulation.
Where [9] appears, read: anti-CD3 and anti-CD28 co-stimulation, read-out: CD25 staining CD3/CD28 1 μM.
Where [10] appears, read: anti-CD3 stimulation alone, read-out: CD25 staining CD3 1 μM.
Where [11] appears, read: anti-CD3 and anti-CD28 co-stimulation, read-out: IL-2 secretion CD3/CD28 1 μM.
The mark [12] stands for this setting: anti-CD3 stimulation alone, read-out: IL-2 secretion CD3 1 μM.
The mark [13] stands for this setting: 0.125 nM Cbl-b final concentration (Low), read-out: Cbl-b activity IC50 (Low).

A value given as a limit tells only on which side of the number the result lay.

T1 sequence (Q13191 36-427): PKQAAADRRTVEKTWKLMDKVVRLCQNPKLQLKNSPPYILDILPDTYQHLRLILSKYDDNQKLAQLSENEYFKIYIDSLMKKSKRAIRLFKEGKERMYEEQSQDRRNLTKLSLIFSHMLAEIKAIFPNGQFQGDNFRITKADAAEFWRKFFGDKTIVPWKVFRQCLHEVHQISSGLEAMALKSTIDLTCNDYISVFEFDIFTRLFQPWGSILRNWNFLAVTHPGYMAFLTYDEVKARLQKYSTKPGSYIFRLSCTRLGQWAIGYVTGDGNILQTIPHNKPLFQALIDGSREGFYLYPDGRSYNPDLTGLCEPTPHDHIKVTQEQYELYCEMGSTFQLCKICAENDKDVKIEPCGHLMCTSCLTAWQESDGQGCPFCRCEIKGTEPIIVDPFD

In the case of `Cn1cnnc1C[C@]1(c2cccc(N3Cc4c(cc(CN[C@H]5CCC(F)(F)C5)cc4C(F)(F)F)C3=O)c2)C[C@H](C#N)C1` [Compound 20, (1R3r)-3-(3-(6-((((S)-3,3-difluorocyclopentyl)amino)methyl)-1-oxo-4-(trifluoromethyl)isoindolin-2-yl)phenyl)-3-((4-methyl-4H-1,2,4-triazol-3-yl)methyl)cyclobutane-1-carbonitrile], the “IL-2 secretion CD3/CD28 0.3 μM” value in test [1] and in test [3] was “A (A indicates >15 fold)” each time. The “IL-2 secretion CD3/CD28 1 μM” value in test [1] and in test [3] was “A (A indicates >15 fold)” throughout. Further, the “IL-2 secretion CD3 1 μM” value in test [1] and in test [3] was “A (A indicates >0.66 fold)” each time. Moreover, the “IL-2 secretion CD3 3 μM” value in test [1] and in test [3] was “A (A indicates >0.66 fold)” throughout. Also, the fold induction at 0.3 µM in test [2] (setting [8]) was over 1.39; in test [4] (setting [8]), over 20. Also, the fold induction at 1 µM in test [2] (setting [9]) is over 1.39; in test [2] (setting [10]) it was over 1.15; in test [4] (setting [11]) it was over 20; in test [4] (setting [12]), over 0.85. Further, the fold induction at 3 µM in test [2] (anti-CD3 stimulation alone) was over 1.15; in test [4] (anti-CD3 stimulation alone), over 0.85. The IC50 in test [5], in test [6] (setting [13]) and in test [7] was under 1 nM each time.

As to `C[C@H]1CCCN(Cc2cc3c(c(C(F)(F)F)c2)CN(c2cccc([C@]4(Cc5nncn5C)C[C@@H](C#N)C4)c2)C3=O)C1` [Compound 19, (1R,3r)-3-((4-methyl-4H-1,2,4-triazol-3-yl)methyl)-3-(3-(6-(((S)-3-methylpiperidin-1-yl)methyl)-1-oxo-4-(trifluoromethyl)isoindolin-2-yl)phenyl)cyclobutane-1-carbonitrile], the “IL-2 secretion CD3/CD28 0.3 μM” value in test [1] and in test [3] was “A (A indicates >15 fold)” throughout. The “IL-2 secretion CD3/CD28 1 μM” value in test [1] and in test [3] was “A (A indicates >15 fold)” throughout. Further, the “IL-2 secretion CD3 1 μM” value in test [1] and in test [3] was “A (A indicates >0.66 fold)” throughout. In addition, the “IL-2 secretion CD3 3 μM” value in test [1] and in test [3] was “A (A indicates >0.66 fold)” throughout. The values for the fold induction at 0.3 µM in test [2] (setting [8]) and in test [4] (setting [8]) were over 1.39 and over 20, respectively. The fold induction at 1 µM is over 1.39 in test [2] (setting [9]), over 1.15 in test [2] (setting [10]), over 20 in test [4] (setting [11]) and over 0.85 in test [4] (setting [12]). For the same compound, the fold induction at 3 µM in test [2] (anti-CD3 stimulation alone) was over 1.15; in test [4] (anti-CD3 stimulation alone), over 0.85. The IC50 in test [5], in test [6] (setting [13]) and in test [7] was under 1 nM throughout.

On to `Cn1cnnc1C[C@]1(c2cccc(N3Cc4c(cc(CN5CCC6(CC6)C5)cc4C(F)(F)F)C3=O)c2)C[C@H](C#N)C1` [Compound 4, (1r,3r)-3-(3-(6-((5-azaspiro[2.4]heptan-5-yl)methyl)-1-oxo-4-(trifluoromethyl)isoindolin-2-yl)phenyl)-3-((4-methyl-4H-1,2,4-triazol-3-yl)methyl)cyclobutane-1-carbonitrile], for which the “IL-2 secretion CD3/CD28 0.3 μM” value in test [1] and in test [3] was “A (A indicates >15 fold)” in each case. Moreover, the “IL-2 secretion CD3/CD28 1 μM” value in test [1] and in test [3] was “A (A indicates >15 fold)” throughout. Moreover, the “IL-2 secretion CD3 1 μM” value in test [1] and in test [3] was “A (A indicates >0.66 fold)” throughout. Moreover, the “IL-2 secretion CD3 3 μM” value in test [1] and in test [3] was “A (A indicates >0.66 fold)” each time. Also, the fold induction at 0.3 µM is 1.24 to 1.39 in test [2] (setting [8]) and at most 15 in test [4] (setting [8]). Moreover, the fold induction at 1 µM is 1.24 to 1.39 in test [2] (setting [9]), over 1.15 in test [2] (setting [10]), 15 to 20 in test [4] (setting [11]) and 0.4 to 0.85 in test [4] (setting [12]). Moreover, the fold induction at 3 µM in test [2] (anti-CD3 stimulation alone) is over 1.15; in test [4] (anti-CD3 stimulation alone), 0.4 to 0.85. The IC50 in test [5] lay in the range of 1 to 5 nM; in test [6] (setting [13]), 1 to 2 nM; in test [6] (read-out: IC50 values in the Cbl-b inhibition assay of Biological Example 1), 1 to 2 nM; in test [7], 1 to 5 nM.

With `C[C@@H]1CN(Cc2cc(C(=O)Nc3cccc([C@]4(Cc5nncn5C)C[C@@H](C#N)C4)c3)nc(C3CC3)c2)CCO1` [Compound 56, N-(3-((1r,3R)-3-cyano-1-((4-methyl-4H-1,2,4-triazol-3-yl)methyl)cyclobutyl)phenyl)-6-cyclopropyl-4-(((R)-2-methylmorpholino)methyl)picolinamide], the “IL-2 secretion CD3/CD28 0.3 μM” value in test [1] and in test [3] was “A (A indicates >15 fold)” throughout. The “IL-2 secretion CD3/CD28 1 μM” value in test [1] and in test [3] was “A (A indicates >15 fold)” each time. Besides, the “IL-2 secretion CD3 1 μM” value in test [1] and in test [3] was “A (A indicates >0.66 fold)” throughout. For the same compound, the “IL-2 secretion CD3 3 μM” value in test [1] and in test [3] was “A (A indicates >0.66 fold)” in each case. The results for the fold induction at 0.3 µM in test [2] (setting [8]) and in test [4] (setting [8]) were at most 1.24 and 15 to 20, respectively. The fold induction at 1 µM is at most 1.24 in test [2] (setting [9]), 1 to 1.15 in test [2] (setting [10]), over 20 in test [4] (setting [11]) and 0.4 to 0.85 in test [4] (setting [12]). The fold induction at 3 µM fell in the range of 1 to 1.15 in test [2] (anti-CD3 stimulation alone) and 0.4 to 0.85 in test [4] (anti-CD3 stimulation alone). Also, the IC50 in test [5], in test [6] (setting [13]) and in test [7] was under 1 nM in each case.

Source of the values: patent publication US11530229B2, “Cyano cyclobutyl compounds for CBL-B inhibition and uses thereof” (Nurix Therapeutics, Inc., priority 2019, dated 2022).
